Results: patent EP4806435A1, “DIHYDROCHROMENE-DERIVATIVE-CONTAINING THERAPEUTIC AGENT FOR CANCER” (Sumitomo Pharma Co., Ltd., priority 2023, dated 2025)

Tested on: patients with recurrent malignant glioma classified as WHO grade III or IV
Assay: Phase 1 dose-escalation clinical trial: safety (TEAEs, DLTs, MTD);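 further: dosing continued until unacceptable toxicity, consent withdrawal, loss to follow-up or investigator/sponsor decision, with cohorts of 1-6 patients per dose level and MTD estimated by BLRM from cumulative DLT data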
[1] = 20 mg (N=2), cutoff April 21, 2023
[2] = 20 mg QD (N=2), cutoff April 21, 2024
[3] = 40 mg (N=4), cutoff April 21, 2023
[4] = 40 mg QD (N=4), cutoff April 21, 2024
[5] = 80 mg (N=3), cutoff April 21, 2023
[6] = 80 mg QD (N=3), cutoff April 21, 2024
[7] = 120 mg (N=6), cutoff April 21, 2023
[8] = 120 mg QD (N=6), cutoff April 21, 2024
[9] = 180 mg (N=3), cutoff April 21, 2023
[10] = 180 mg QD (N=6), cutoff April 21, 2024

Method: Administration to each subject was continued until unacceptable toxicity occurred, consent was withdrawn, the subject was lost to follow-up, or discontinuation was determined by the investigator and/or the sponsor.
The present study consists of two parts: a dose-escalation part (Part 1) and a dose-expansion part (Part 2).
Each dose level was evaluated in cohorts of 1-6 patients. In all cohorts, administration of the investigational drug to the second and subsequent patients was permitted after completion of all safety assessments on Day 8 of Cycle 1 in the first patient. […] At dose level 2 in the dose-escalation part, at least three patients were required to be evaluated before escalation to a higher dose level. After completion of each cohort, the probability of observing a DLT at each dose level in the present study was updated using the BLRM based on cumulative data from the preceding cohorts, and the MTD was estimated.

## CC1(C)Oc2cc(Cl)ccc2[C@@H]2OCC3(CCN(CCn4ccnc4)CC3)C[C@H]21 [Compound 1, (4'aR,10'bR)-8'-chloro-1-[2-(1H-imidazol-1-yl)ethyl]-5',5'-dimethyl-4'a,10'b-dihydro-2'H,4'H,5'H-spiro[piperidine-4,3'-pyrano[3,2-c][1]benzopyran] diphosphate]
[1]
  Number of patients with any TEAE: 2 (100) n (%)
  TEAE: constipation: 0 n (%)
  TEAE: decreased appetite: 0 n (%)
  TEAE: decreased lymphocyte count: 0 n (%)
  TEAE: decreased neutrophil count: 0 n (%)
  TEAE: decreased platelet count: 0 n (%)
  TEAE: decreased white blood cell count: 0 n (%)
  TEAE: dry skin: 1 (50.0) n (%)
  TEAE: fall: 0 n (%)
  TEAE: headache: 0 n (%)
  TEAE: hypertrigly-ceridaemia: 0 n (%)
  TEAE: hyponatremia: 0 n (%)
  TEAE: increased alanine aminotransferase: 1 (50.0) n (%)
  TEAE: increased aspartate aminotransferase: 1 (50.0) n (%)
  TEAE: nausea: 1 (50.0) n (%)
  TEAE: seizure: 1 (50.0) n (%)
  TEAE: vomiting: 0 n (%)
[2]
  Number of Patients with Any TEAE: 2 (100) n (%)
  TEAE: Confusional state: 0 n (%)
  TEAE: Gait disturbance: 0 n (%)
  TEAE: Gastrointestinal disorder: 0 n (%)
  TEAE: Hiccups: 0 n (%)
  TEAE: Tremor: 0 n (%)
  TEAE: alopecia: 0 n (%)
  TEAE: constipation: 0 n (%)
  TEAE: decreased appetite: 0 n (%)
  TEAE: decreased lymphocyte count: 0 n (%)
  TEAE: decreased neutrophil count: 0 n (%)
  TEAE: decreased platelet count: 0 n (%)
  TEAE: diarrhea: 0 n (%)
  TEAE: dry skin: 1 (50.0) n (%)
  TEAE: fall: 0 n (%)
  TEAE: fatigue: 0 n (%)
  TEAE: headache: 0 n (%)
  TEAE: hypertrigly-ceridaemia: 0 n (%)
  TEAE: hyponatremia: 0 n (%)
  TEAE: increase in blood cholesterol: 0 n (%)
  TEAE: increased alanine aminotransferase: 1 (50.0) n (%)
  TEAE: increased aspartate aminotransferase: 1 (50.0) n (%)
  TEAE: maculopapular rash: 0 n (%)
  TEAE: nausea: 1 (50.0) n (%)
  TEAE: seizure: 1 (50.0) n (%)
  TEAE: vomiting: 0 n (%)
20 mg to 240 mg, cutoff April 21, 2023
  dose-limiting toxicities: No dose-limiting toxicities were observed at any dose level
20 mg, 120 mg, and 180 mg groups, cutoff April 21, 2023
  serious TEAE: seizure: three
[3]
  Number of patients with any TEAE: 4 (100) n (%)
  TEAE: constipation: 1 (25.0) n (%)
  TEAE: decreased appetite: 1 (25.0) n (%)
  TEAE: decreased lymphocyte count: 2 (50.0) n (%)
  TEAE: decreased neutrophil count: 2 (50.0) n (%)
  TEAE: decreased platelet count: 2 (50.0) n (%)
  TEAE: decreased white blood cell count: 2 (50.0) n (%)
  TEAE: dry skin: 0 n (%)
  TEAE: fall: 1 (25.0) n (%)
  TEAE: headache: 1 (25.0) n (%)
  TEAE: hypertrigly-ceridaemia: 1 (25.0) n (%)
  TEAE: hyponatremia: 1 (25.0) n (%)
  TEAE: increased alanine aminotransferase: 1 (25.0) n (%)
  TEAE: increased aspartate aminotransferase: 2 (50.0) n (%)
  TEAE: nausea: 2 (50.0) n (%)
  TEAE: seizure: 1 (25.0) n (%)
  TEAE: vomiting: 1 (25.0) n (%)
[4]
  Number of Patients with Any TEAE: 4 (100) n (%)
  TEAE: Confusional state: 0 n (%)
  TEAE: Gait disturbance: 0 n (%)
  TEAE: Gastrointestinal disorder: 0 n (%)
  TEAE: Hiccups: 2 (50.0) n (%)
  TEAE: Tremor: 0 n (%)
  TEAE: alopecia: 1 (25.0) n (%)
  TEAE: constipation: 1 (25.0) n (%)
  TEAE: decreased appetite: 1 (25.0) n (%)
  TEAE: decreased lymphocyte count: 2 (50.0) n (%)
  TEAE: decreased neutrophil count: 2 (50.0) n (%)
  TEAE: decreased platelet count: 2 (50.0) n (%)
  TEAE: diarrhea: 0 n (%)
  TEAE: dry skin: 0 n (%)
  TEAE: fall: 1 (25.0) n (%)
  TEAE: fatigue: 1 (25.0) n (%)
  TEAE: headache: 1 (25.0) n (%)
  TEAE: hypertrigly-ceridaemia: 1 (25.0) n (%)
  TEAE: hyponatremia: 1 (25.0) n (%)
  TEAE: increase in blood cholesterol: 0 n (%)
  TEAE: increased alanine aminotransferase: 1 (25.0) n (%)
  TEAE: increased aspartate aminotransferase: 2 (50.0) n (%)
  TEAE: maculopapular rash: 0 n (%)
  TEAE: nausea: 2 (50.0) n (%)
  TEAE: seizure: 1 (25.0) n (%)
  TEAE: vomiting: 1 (25.0) n (%)
40 mg QD group, cutoff April 21, 2024
  serious TEAE: disease progression: one
40 mg group, cutoff April 21, 2023
  serious TEAE: disease progression: one
[5]
  Number of patients with any TEAE: 3 (100) n (%)
  TEAE: constipation: 0 n (%)
  TEAE: decreased appetite: 0 n (%)
  TEAE: decreased lymphocyte count: 0 n (%)
  TEAE: decreased neutrophil count: 2 (66.7) n (%)
  TEAE: decreased platelet count: 1 (33.3) n (%)
  TEAE: decreased white blood cell count: 1 (33.3) n (%)
  TEAE: dry skin: 0 n (%)
  TEAE: fall: 0 n (%)
  TEAE: headache: 1 (33.3) n (%)
  TEAE: hypertrigly-ceridaemia: 0 n (%)
  TEAE: hyponatremia: 1 (33.3) n (%)
  TEAE: increased alanine aminotransferase: 2 (66.7) n (%)
  TEAE: increased aspartate aminotransferase: 0 n (%)
  TEAE: nausea: 2 (66.7) n (%)
  TEAE: seizure: 0 n (%)
  TEAE: vomiting: 0 n (%)
[6]
  Number of Patients with Any TEAE: 3 (100) n (%)
  TEAE: Confusional state: 0 n (%)
  TEAE: Gait disturbance: 0 n (%)
  TEAE: Gastrointestinal disorder: 0 n (%)
  TEAE: Hiccups: 0 n (%)
  TEAE: Tremor: 0 n (%)
  TEAE: alopecia: 0 n (%)
  TEAE: constipation: 0 n (%)
  TEAE: decreased appetite: 0 n (%)
  TEAE: decreased lymphocyte count: 0 n (%)
  TEAE: decreased neutrophil count: 2 (66.7) n (%)
  TEAE: decreased platelet count: 1 (33.3) n (%)
  TEAE: diarrhea: 0 n (%)
  TEAE: dry skin: 0 n (%)
  TEAE: fall: 0 n (%)
  TEAE: fatigue: 0 n (%)
  TEAE: headache: 1 (33.3) n (%)
  TEAE: hypertrigly-ceridaemia: 0 n (%)
  TEAE: hyponatremia: 1 (33.3) n (%)
  TEAE: increase in blood cholesterol: 0 n (%)
  TEAE: increased alanine aminotransferase: 2 (66.7) n (%)
  TEAE: increased aspartate aminotransferase: 0 n (%)
  TEAE: maculopapular rash: 0 n (%)
  TEAE: nausea: 2 (66.7) n (%)
  TEAE: seizure: 0 n (%)
  TEAE: vomiting: 0 n (%)
[7]
  Number of patients with any TEAE: 6 (100) n (%)
  TEAE: constipation: 2 (33.3) n (%)
  TEAE: decreased appetite: 0 n (%)
  TEAE: decreased lymphocyte count: 0 n (%)
  TEAE: decreased neutrophil count: 1 (16.7) n (%)
  TEAE: decreased platelet count: 0 n (%)
  TEAE: decreased white blood cell count: 0 n (%)
  TEAE: dry skin: 1 (16.7) n (%)
  TEAE: fall: 1 (16.7) n (%)
  TEAE: headache: 2 (33.3) n (%)
  TEAE: hypertrigly-ceridaemia: 1 (16.7) n (%)
  TEAE: hyponatremia: 1 (16.7) n (%)
  TEAE: increased alanine aminotransferase: 2 (33.3) n (%)
  TEAE: increased aspartate aminotransferase: 1 (16.7) n (%)
  TEAE: nausea: 2 (33.3) n (%)
  TEAE: seizure: 1 (16.7) n (%)
  TEAE: vomiting: 2 (33.3) n (%)
[8]
  Number of Patients with Any TEAE: 6 (100) n (%)
  TEAE: Confusional state: 0 n (%)
  TEAE: Gait disturbance: 0 n (%)
  TEAE: Gastrointestinal disorder: 0 n (%)
  TEAE: Hiccups: 0 n (%)
  TEAE: Tremor: 0 n (%)
  TEAE: alopecia: 0 n (%)
  TEAE: constipation: 2 (33.3) n (%)
  TEAE: decreased appetite: 0 n (%)
  TEAE: decreased lymphocyte count: 0 n (%)
  TEAE: decreased neutrophil count: 1 (16.7) n (%)
  TEAE: decreased platelet count: 0 n (%)
  TEAE: diarrhea: 1 (16.7) n (%)
  TEAE: dry skin: 1 (16.7) n (%)
  TEAE: fall: 1 (16.7) n (%)
  TEAE: fatigue: 0 n (%)
  TEAE: headache: 2 (33.3) n (%)
  TEAE: hypertrigly-ceridaemia: 1 (16.7) n (%)
  TEAE: hyponatremia: 1 (16.7) n (%)
  TEAE: increase in blood cholesterol: 0 n (%)
  TEAE: increased alanine aminotransferase: 2 (33.3) n (%)
  TEAE: increased aspartate aminotransferase: 1 (16.7) n (%)
  TEAE: maculopapular rash: 0 n (%)
  TEAE: nausea: 2 (33.3) n (%)
  TEAE: seizure: 1 (16.7) n (%)
  TEAE: vomiting: 2 (33.3) n (%)
120 mg QD group, cutoff April 21, 2024
  serious TEAE: aphasia: one
120 mg group, cutoff April 21, 2023
  serious TEAE: aphasia: one
[9]
  Number of patients with any TEAE: 3 (100) n (%)
  TEAE: constipation: 1 (33.3) n (%)
  TEAE: decreased appetite: 1 (33.3) n (%)
  TEAE: decreased lymphocyte count: 1 (33.3) n (%)
  TEAE: decreased neutrophil count: 1 (33.3) n (%)
  TEAE: decreased platelet count: 1 (33.3) n (%)
  TEAE: decreased white blood cell count: 0 n (%)
  TEAE: dry skin: 0 n (%)
  TEAE: fall: 1 (33.3) n (%)
  TEAE: headache: 0 n (%)
  TEAE: hypertrigly-ceridaemia: 1 (33.3) n (%)
  TEAE: hyponatremia: 0 n (%)
  TEAE: increased alanine aminotransferase: 2 (66.7) n (%)
  TEAE: increased aspartate aminotransferase: 0 n (%)
  TEAE: nausea: 1 (33.3) n (%)
  TEAE: seizure: 1 (33.3) n (%)
  TEAE: vomiting: 1 (33.3) n (%)
[10]
  Number of Patients with Any TEAE: 6 (100) n (%)
  TEAE: Confusional state: 1 (16.7) n (%)
  TEAE: Gait disturbance: 1 (16.7) n (%)
  TEAE: Gastrointestinal disorder: 2 (33.3) n (%)
  TEAE: Hiccups: 0 n (%)
  TEAE: Tremor: 2 (33.3) n (%)
